The source of these data is patent US20030105121A1, “Method of preventing lipodystrophy syndrome or reversing a pre-existing syndrome in HIV-infected patients being treated with antiretroviral agents” (priority 1999, published 2003).

SMILES strings stand for the structures. Entries after “also recorded” stand apart in the source; their conditions may differ.

The test system of one data set is lipodystrophy syndrome. The following applies: in vivo; cited from earlier work.
Another data set has as its system lipodystrophy. As to the kind of experiment: Case histories (Examples a-g): LDN treatment of pre-existing lipodystrophy. The class given is in vivo, human. The settings on record: for serum cholesterol after resuming naltrexone: Example a nine months (from 270), Example d 12 months (from 360). From the text:
One will have noted that the above case experience was entirely focused on limiting the risk of patients who were at the time free of lipodystrophy symptoms developing such symptoms during their antiretroviral therapy. This is explained by the fact that due to historical circumstances, i.e. the only recent introduction of antiretroviral therapy, the patients in this group were all being treated with naltrexone as described before being exposed to antiretroviral therapy. […] This was not anticipated and is considered to be a quite surprising finding.

A short description of data set [1]: Long experience with low dose naltrexone: side effects. The class given is in vivo, human. The protocol: Long experience has shown the perhaps three percent (3%) of patients receiving the drug at a 4.5 mg. dosage per day may suffer sleep disturbance lasting more than two or three days. Where this has been observed, reduction of the dosage to 3.0 mg. generally returns the sleep pattern to normalcy.

The subject of data set [2] is HIV. As to the kind of experiment: Experience with low dose naltrexone treatment of HIV. The class given is in vivo, human. The settings on record: low dose naltrexone alone. An excerpt:
I have already disclosed in U.S. Pat. No. 4,888,346, issued Dec. 19, 1989, as a continuation of Ser. No. 06/916,180, filed Oct. 7, 1986, the administration of an essentially pure opiate receptor antagonist at a low dose level to patients suffering from acquired immune deficiency syndrome (or AIDS) in any of its known states, including AIDS-related complex. For this treatment, the amount of the essentially pure opiate receptor antagonist was required to be at a quite low level corresponding in results to those obtained by the administration of Naltrexone at a dosage level of from 1.0 mg. to 10 mg., preferably at a dosage level of 1.0 mg. to about 5 mg., and most preferably up to about 3.0 mg, all per day. At dosage levels above about 10 mg. per day, not only were the desired therapeutic results not obtained but the effect of the treatment appeared to be negative in acerbating the disease.

In data set [3] the test system is HIV. The class given is in vivo. The settings on record: four continuously undetectable patients, last six months of the study. An excerpt:
(§1) Because individual examples of treatment histories are of little value in discerning the effectiveness of a given treatment for HIV/AIDS infections, and especially effectiveness in reducing the likelihood of developing a highly variable side effect such as lipodystrophy, due among other things to wide differences in the initial extent of the infection as well as in the response of any given individual, a group of 85 different cases will be evaluated as a group in the following discussion. This number is believed to be a sufficiently large statistical sample to permit a reasonable judgment to be made of the effectiveness of the treatment of this invention.
The medication status of the group at the time of initiation of PI treatment was as follows: Due to historical circumstances, i.e. the predilection in view of the earlier patent of the applicant to treating HIV/AIDS patients with naltrexone, all individuals of the group were already receiving naltrexone at the low dosage level. Based on blood count of […] lymphocytes, individual clinical history and personal patient preference, 60 had already been receiving, or were started on, lamivudine (NA) while 49 of the 65 were also receiving zidovudine (NA) and 4 of the 69 were receiving a combination of lamivudine and stavovudine, bearing in mind that the NA group of antivirals had been available for the longest time. […]

For data set [4] the following is noted: human, in vivo.
Excerpt: as §1
The medication status of the group at the time of initiation of PI treatment was as follows: Due to historical circumstances, i.e. the predilection in view of the earlier patent of the applicant to treating HIV/AIDS patients with naltrexone, all individuals of the group were already receiving naltrexone at the low dosage level. Based on blood count of […] lymphocytes, individual clinical history and personal patient preference, 60 had already been receiving, or were started on, lamivudine (NA) while 49 of the 65 were also receiving zidovudine (NA) and 4 of the 69 were receiving a combination of lamivudine and stavovudine, bearing in mind that the NA group of antivirals had been available for the longest time. […] Patients already on any of the NA agents, as just specified, were continued on this treatment during the study. The remaining 25 were receiving no medications (other than naltrexone) at the start of the study.

[5] abbreviates: 3.0 mg qhs added to ARV, single cases.
Setting [6] is: 3.0 mg qhs added to ARV, single cases, listed as LDN.

For the molecule `Cc1cn([C@H]2C=C[C@@H](CO)O2)c(=O)[nH]c1=O` [zerit, stavudine], the “rate or risk of lipodystrophy” value with lipodystrophy syndrome was “at least 40%”.

`O=C1CC[C@@]2(O)[C@H]3Cc4ccc(O)c5c4[C@@]2(CCN3CC2CC2)[C@H]1O5` [naltrexone, Naltrexone]: the “serum triglycerides after resuming LDN” value in the data set with lipodystrophy (3.0 mg qhs added to ARV, 12 months, from 620) turned out to be 140. Besides, the “reduction of "buffalo hump"” value with lipodystrophy (3 mg qhs added to ARV, nine months) is listed as “about 50%”. For the same molecule, the “serum cholesterol after resuming naltrexone” value with lipodystrophy (3 mg qhs added to ARV) was found to be 190; with lipodystrophy (3 mg qhs added to ARV, listed as LDN) it was 220. In addition, the “other physical signs (subcutaneous tissue, breast size)” value was “returned” in the data set on lipodystrophy (setting [5]) and “about one-half” with lipodystrophy (setting [6]). Besides, the figures for the waist size outcome with lipodystrophy (setting [5]) and in the data set on lipodystrophy (setting [6]) were “gradually reduced to its former size; also recorded: returned to their previous normal state” and “partially cleared by about one-half”, respectively. For the same molecule, in the data set on lipodystrophy (4.5 mg qhs added to ARV, eight weeks), the “decrease in waist size” value was 4 ″. The insulin need with lipodystrophy (4.5 mg qhs added to ARV, four weeks, from 90 units) is 20 units per day. The waist size with lipodystrophy (4.5 mg qhs added to ARV, three months, from 44″) is 40 ″. Further, the “"buffalo hump" outcome” value is “completely disappeared; also recorded: shrank and eventually disappeared” with lipodystrophy (3.0-4.5 mg qhs added to ARV, single cases); “about one-half; also recorded: largely disappeared” with lipodystrophy (3.0-4.5 mg qhs added to ARV, single cases, listed as LDN). Besides, the “signs of lipodystrophy overall” value in the data set on lipodystrophy (3.0-4.5 mg qhs added to ARV, single cases, about eight months, listed as LDN) was “gradually disappeared; also recorded: complete reversal; also recorded: gradual clearing in the residual signs”. Besides, in data set [1] (4.5 mg. dosage per day), the “patients with sleep disturbance lasting more than two or three days” value is reported as about 3%. Further, in data set [1] (low dose levels), the “side effects or toxicity” value is reported as “minimal side effects or evidence of toxicity”. Moreover, in the data set on HIV [2], the “effect on the patient's HIV condition” value is “stabilizing effect”.

As to `Cc1c(O)cccc1C(=O)N[C@@H](CSc1ccccc1)[C@H](O)CN1C[C@H]2CCCC[C@H]2C[C@H]1C(=O)NC(C)(C)C` [nelfinavir], the “change in viral levels after substitution of indinavir” value in the data set on HIV [3] is listed as “did not result in any appreciable change in viral levels”. Further, the “side effect associated with the drug” value in data set [4] is “persistent diarrhea”.

Regarding `Cc1ccnc2c1NC(=O)c1cccnc1N2C1CC1` [nevirapine], the “patients developing body-wide allergic rashes with hives and itching” value in data set [4] is listed as “Seven”.

As for `CC(C)(C)NC(=O)[C@@H]1CN(Cc2cccnc2)CCN1C[C@@H](O)C[C@@H](Cc1ccccc1)C(=O)N[C@H]1c2ccccc2C[C@H]1O` [indinavir], the persistent side effects result in data set [4] is recorded as “mild nausea”.
